Results: patent publication US20090105200A1, “Combination therapy” (priority 2007, published 2009)

What was measured:
[1] = test system: primary CLL cells; experiment: Cell death by 7AAD staining/flow cytometry and Wright-Giemsa stained cytospin slides; assay type: cell-based, human; settings: 24 hours; for toxicity to CLL cells (photomicrographs): individual treatment, 3 nM
[2] = test system: NF-κB2 precursor p100; experiment: Immunoblot analysis of p100/p52; assay type: cell-based, human; settings: bortezomib with romidepsin
Method: (§1) Methods. […] Immunoblot analysis (30 μg of protein per condition) was performed to detect cleavage of caspase-12 and PARP, levels of IκB c, phospho-IκBα, p65, p100/p52, as well as expression of NF-κB downstream anti-apoptotic proteins. Parallel studies were performed in two established CLL cell lines (JVM-3 and MEC-2, DSMZ).

[3] = test system: Mcl-1; experiment: Immunoblot analysis of Mcl-1; assay type: cell-based, human
Method: as §1

[4] = test system: dexamethasone-resistant (MM.1R) human myeloma cells; experiment: Apoptosis by Annexin V staining and flow cytometry; assay type: cell-based; settings: 24 hours; 1 nM romidepsin with 2 nM bortezomib
[5] = test system: bortezomib-resistant cells (U266/PS-R); experiment: Apoptosis by Annexin V-FITC staining and flow cytometry; assay type: cell-based, human; settings: 48 hours; 2 nM romidepsin with 5-15 nM bortezomib
[6] = test system: NF-κB; assay type: cell-based, human; settings: romidepsin alone
Method: as §1

[7] = Phase I/II dose escalation trial: toxicity and maximum tolerated dose; assay type: in vivo, human; settings: dose level 2; with bortezomib 1.3 mg/m^2 and dexamethasone 20 mg; 28-day cycle
From the text: The trial design is illustrated in FIG. 10.
Specifically, during phase I (accelerated dose escalation phase), an accelerated titration design was used to ascertain the MTD of romidepsin. For example, if no dose limiting toxicities (DLTs) and <2 patients have moderate toxicities in cycle 1 (C1), the next patient is entered at one level higher. According to National Cancer Institute Common Toxicity Criteria (NCI-CTC) (version 3), DLT is defined as platelets<25×10^9/L; Grade 4 neutropenia despite G-CSF support; Grade 3 or 4 nausea, emesis, or diarrhea despite treatment; any other Grade 3 or 4 non-haematological toxicity; or >4 week suspension of treatment due to toxicity. The accelerated phase ends when one patient has a DLT during C1 or two patients have “moderate” toxicity during first treatment cycles. Patients were entered in cohorts of three according to the standard dose escalation design. A maximum of six patients were treated at any dose level. MTD is defined as the highest dose level at which the incidence of DLT is less than 33%. […]

[8] = bortezomib 3 nM with romidepsin 3-5 nM, five patients

Compound: CC(C)C[C@H](NC(=O)[C@H](Cc1ccccc1)NC(=O)c1cnccn1)B(O)O [bortezomib, [(1R)-3-methyl-1-[[(2S)-1-oxo-3-phenyl-2-[(pyrazinylcarbonyl)amino]propyl]amino]butyl]boronic acid]
- toxicity to CLL cells (photomicrographs) [1]: relatively non-toxic
- processing of NF-κB2 precursor p100 into p52 [2]: blocked romidepsin-mediated processing of NF-κB2 precursor p100 into its active p52 form
- Mcl-1 level ([3]; bortezomib alone): induced accumulation of Mcl-1

Compound: C/C=C1\NC(=O)[C@H]2CSSCC/C=C/[C@H](CC(=O)N[C@H](C(C)C)C(=O)N2)OC(=O)[C@H](C(C)C)NC1=O [romidepsin, (1S,4S,10S,16E,21R)-7-[(2Z)-ethylidene]-4,21-diisopropyl-2-oxa-12,13-dithia-5,8,20,23-tetraazabicyclo[8.7.6]tricos-16-ene-3,6,9,19,22-pentanone]
- effect on bortezomib lethality [4]: potentiate bortezomib lethality
- effect on bortezomib lethality [5]: potentiates bortezomib lethality
- primary CLL samples with additive lethality [1, 8]: additive lethality in one sample
- primary CLL samples with increased bortezomib lethality [1, 8]: dramatically increased bortezomib lethality in four out of five primary CLL samples
- toxicity to CLL cells (photomicrographs) [1]: relatively non-toxic
- NF-κB activity [6]: activated NF-κB activity
- bortezomib-induced Mcl-1 accumulation ([3]; cells co-exposed to romidepsin): diminished
- maximum tolerated dose of romidepsin [7]: 10 mg/m^2
